One data set deals with B16-F1 (murine melanoma). In words: [3H] thymidine uptake cell proliferation assay, B16F1. In kind it is cell-based. The conditions noted are these: Mus musculus, read-out: Cell Proliferation Effects (IC50 (nM)).
In data set [1] the test system is B16-F10 (murine melanoma). Description: [3H] thymidine uptake cell proliferation assay, B16F10. The conditions noted are these: Mus musculus, read-out: Cell Proliferation Effects (IC50 (nM)). It counts as cell-based.
The subject of data set [2] is PC3 (human prostate carcinoma). Description: [3H] thymidine uptake cell proliferation assay, PC3. In kind it is cell-based. The conditions noted are these: PC-3, read-out: Cell Proliferation Effects (IC50 (nM)).
Data set [3] deals with SKOV-3 (human ovarian carcinoma). In words: [3H] thymidine uptake cell proliferation assay, SKOV3. To be noted: SK-OV-3, read-out: Cell Proliferation Effects (IC50 (nM)). It counts as cell-based.
For data set [4], the system named is NIH-3T3 (murine embryonic fibroblasts). In words: [3H] thymidine uptake cell proliferation assay, NIH3T3. It counts as cell-based. To be noted: Mus musculus; NIH3T3, non-tumorigenic cell line; read-out: Cell Proliferation Effects (IC50 (nM)).
A short description of data set [5]: In vivo xenograft model, tumour growth. The conditions noted are these: 2.5 mg/kg daily i.p. in DMSO, day 15, athymic (Rag2M) female mice; control 100%. The protocol: Mice were inoculated subcutaenously in the rear flank with […] (LS180) and then injected daily with KP-23172 i.p. Tumour measurements were taken daily. A group of 8 athymic (Rag2M) female mice were used as a murine allograft model for the test compound, which was administered in DMSO. 8 control mice received no test compound. Mice were inoculated with tumour cells subcutaneously in the rear flank and then injected with test compound daily intraperitoneally. Tumors were measured and the size calculated, with the objective being a reduction in tumor growth compared to controls. […] Results are illustrated in FIG. 4.

The nature of the next data set: physchem. An excerpt: Solubility of KP-23172 was studied in various percent solutions of hydroxypropyl-B-cyclodextrin in water.
The next data set can be described thus: in vivo. The conditions noted are these: mouse, ip, 2 mg/kg. The protocol: A pharmacokinetics (PK) study was performed on KP-23172 formulated in 20% propylene glycol and 20% hydroxypropyl-B-cyclodextrin, administered intraperitoneally (i.p.) at 2 mg/kg. Plasma samples obtained at various time points were sent to BRI Biopharmaceutical Research Inc., Burnaby, BC, Canada for analysis by Liquid Chromatography/Mass Spectroscopy (LC/MS). Electrospray LC/MS/MS data was acquired in the multiple-reaction-monitoring mode (MRM) in which m/z 225.00>114.20 was monitored for KP-23172 as its [M+H]^+ transition to an ion fragment of m/z 114.2. A mass ion transition of m/z 300.00>165.10 was being monitored for codeine as an internal standard. MRM chromatograms of mouse plasma standard curve samples spiked with 1 and 5000 ng/ml were performed as controls. Plasma calibration standard curves were established based on 1/y linear regression of plasma concentrations of KP-23172 against peak area ratio to the internal standard. The calculated KP-23172 plasma concentrations were based on the assay of 0.05 ml of plasma volume used in the assay and reported as ng/ml concentration. A summary of the KP-23172 plasma concentrations observed in 20 samples from 4 mice is presented in FIG. 2 as a semi-logarithmic plot of the plasma concentrations against blood collection times.

The test system of another data set is PKB. In words: Time course kinase assay in U87 cells, immunoprecipitated with PKB/PH specific antibody. In kind it is cell-based, human. The conditions noted are these: for PKB activity, % of control: 5 uM, background about 15% of control. The protocol:
The compound was added to culture at mid-logarithmic growth which were harvested at specific time intervals. In preparation for this assay, each cell line was seeded at a density of 3 times 1,000,000 cells per plate onto 150 mm culture dishes and allowed to establish o/n at 37 deg C. A confluency of 50–60% was obtained to ensure maximal drug penetration into each cell. Once the cells were adherent to the culture plates, there were treated with PKB inhibitor KP-23172 for a final conc. of 5 uM. Each culture plate was lysed on ice at specific time intervals using 1% NP-40 lysis buffer containing various protease inhibitors; 10 ug/uL aprotinin, 10 ug/ul leupeptin, 1 ug/ul pepstatin, 1 M beta-glycerophosphate and 100 mM PMSF. The resulting lysates were centrifuged at 15K×g at 4 deg C. for 5 min and then assayed for its protein conc. using Bradford's Reagent and absorbance measurements at 595 nm. […] Each sample was then centrifuged at 14K×g for 2 min at 4 deg C. and the s/n aspirated off. Beads were thoroughly washed twice with lysis buffer, then with Assay Dilution Buffer. When any unbound proteins have been completely washed away from the beads, 30 uL of ADB was added along with 10 uL of PDB substrate. Tubes were immediately incubated in 30 deg. C. water baths after the kinase reaction was allowed to commence with the addition of 10 uL assay (gamma32P)ATP. […] All vials were counted for one minute in the scintillation counter. To determine the potency of KP-23172, U87 cells were plated onto 150 mm petri plates and treated with 5 uM KP-23172. After incubation at 37 deg C. under 5% CO2 for the specified time, cells were lysed and the supernatant extracted for kinase analysis. All samples were immunoprecipitated with PKB/PH specific antibody and kinase activity. measured using a short amino acid peptide as the substrate. […] Background was about 15% of control.

The term solubility denotes how much of the substance goes into solution per volume. The low end stands for little dissolved substance, the high end for much dissolved substance.

Converted amounts (≈) assume the structure as drawn.

Regarding `O=C1c2ccccc2-c2nc3nnnn3nc21` [KP-23172], the IC50 in the data set with B16-F1 (murine melanoma) came to 60 nM; in data set [1], 400 nM; in [2] it was 250 nM; in data set [3], 200 nM; in data set [4] it was 150 nM. This compound also registered a tumor take rate in data set [5] of 62.5%. Also, in “physchem”, the “1:1 binding constant for the cyclodextrin inclusion complex” value was found to be 474. In addition, the solubility stood at 0.728 mg/mL (≈ 3250 µM) in “physchem” (aqueous with cosolvent or surfactant or cyclodextrin) and 0.077 mg/mL (≈ 343 µM) in “physchem” (water). Besides, the concentration at 15 min in “in vivo” was roughly 0.5 µg/mL. The compound further showed a concentration at 60 min in the data set “in vivo” of roughly 0.1 µg/mL. Besides, the half-life entry in “in vivo” is given as “about ½”. Besides, the figures for the “PKB activity, % of control” value with PKB (after 15 min), in the data set with PKB (after 30 min) and with PKB (after 60 min) were 80.4%, 23.8% and 38.5%, respectively. Besides, the “levels of the kinase in time course kinase assay” value with PKB (5 iM, after 60 minutes) is listed as “significantly decreased levels of the kinase”.

These data come from patent publication US7196083B2, “Heteropolycyclic inhibitors of protein kinases” (priority 2000, dated 2007).
